From ChEMBL document CHEMBL4316621, “A potent seven-membered cyclic BTK (Bruton's tyrosine Kinase) chiral inhibitor conceived by structure-based drug design to lock its bioactive conformation” (Bioorg Med Chem Lett, 2019)
In brackets after ≈: the same amount, converted by molar mass.

What was measured:
[1] = target: T1, Tyrosine-protein kinase BTK (Homo sapiens, UniProt Q06187); assay: Inhibition of Kinase Tracer 178 binding to biotinylated-BTK (unknown origin) measured after 18 to 24 hrs by Europium-labeled Streptavidin conjugate based TR-FRET assay
T1 sequence (Q06187 whole entry): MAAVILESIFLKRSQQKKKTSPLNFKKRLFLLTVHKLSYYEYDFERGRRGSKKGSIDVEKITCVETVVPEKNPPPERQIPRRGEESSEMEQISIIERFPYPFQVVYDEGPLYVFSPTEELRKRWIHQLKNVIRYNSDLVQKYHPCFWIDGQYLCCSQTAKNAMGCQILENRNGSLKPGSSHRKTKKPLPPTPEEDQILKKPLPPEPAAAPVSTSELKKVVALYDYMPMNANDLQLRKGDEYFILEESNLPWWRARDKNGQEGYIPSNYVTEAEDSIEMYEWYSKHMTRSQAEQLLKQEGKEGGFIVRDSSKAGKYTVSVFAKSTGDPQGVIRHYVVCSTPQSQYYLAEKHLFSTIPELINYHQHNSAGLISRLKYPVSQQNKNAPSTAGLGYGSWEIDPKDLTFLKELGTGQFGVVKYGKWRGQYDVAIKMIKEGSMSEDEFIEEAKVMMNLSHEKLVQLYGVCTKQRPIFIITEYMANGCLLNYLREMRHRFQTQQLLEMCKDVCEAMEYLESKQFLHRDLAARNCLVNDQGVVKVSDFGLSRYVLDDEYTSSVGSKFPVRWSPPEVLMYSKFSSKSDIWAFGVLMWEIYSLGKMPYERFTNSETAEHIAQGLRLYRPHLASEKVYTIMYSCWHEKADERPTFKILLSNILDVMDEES

[2] = target: T1, Tyrosine-protein kinase BTK; assay: Inhibition of BTK in goat F(ab')2 anti-human IgM-stimulated human whole blood assessed as suppression of CD69 expression on B cells pretreated for 30 mins followed by goat F(ab')2 anti-human IgM-stimulation and measured after 20 hrs by flow cytometry; format: tissue-based
[3] = Intrinsic clearance in human liver microsomes at 1 uM preincubated for 1 hr followed by NADPH addition and measured by LC/MS/MS analysis; format: ADME, Microsome; conditions: read-out: CLH
[4] = Intrinsic clearance in rat liver microsomes at 1 uM preincubated for 1 hr followed by NADPH addition and measured by LC/MS/MS analysis; format: ADME, Microsome; conditions: read-out: CLH
[5] = Solubility of the compound by LYSA; format: physicochemical
[6] = Intrinsic clearance in human hepatocytes assessed per million cells at 1 uM preincubated for 1 hr followed by NADPH addition and measured by LC/MS/MS analysis; format: ADME, cell-based, Hepatocyte; conditions: read-out: CLH
[7] = Intrinsic clearance in rat hepatocytes assessed per million cells at 1 uM preincubated for 1 hr followed by NADPH addition and measured by LC/MS/MS analysis; format: ADME, cell-based, Hepatocyte; conditions: read-out: CLH
[8] = target: T2, Cytochrome P450 3A4 (Homo sapiens, UniProt P08684); assay: Time-dependent inhibition of CYP3A4 (unknown origin); format: ADME
T2 sequence (P08684 whole entry): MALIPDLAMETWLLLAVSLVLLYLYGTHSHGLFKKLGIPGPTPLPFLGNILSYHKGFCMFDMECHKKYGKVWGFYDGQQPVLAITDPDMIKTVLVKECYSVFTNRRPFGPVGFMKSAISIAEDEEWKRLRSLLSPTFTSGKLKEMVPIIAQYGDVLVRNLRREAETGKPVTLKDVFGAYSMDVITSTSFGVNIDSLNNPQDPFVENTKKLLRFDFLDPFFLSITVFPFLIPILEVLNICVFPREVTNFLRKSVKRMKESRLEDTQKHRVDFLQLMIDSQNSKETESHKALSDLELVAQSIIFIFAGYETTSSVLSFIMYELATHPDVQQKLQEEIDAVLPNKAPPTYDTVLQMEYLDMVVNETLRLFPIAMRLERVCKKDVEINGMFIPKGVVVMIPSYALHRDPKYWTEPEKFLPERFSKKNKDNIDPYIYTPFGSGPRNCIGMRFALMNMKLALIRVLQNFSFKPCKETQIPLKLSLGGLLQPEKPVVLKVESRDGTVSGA

[9] = target: T2, Cytochrome P450 3A4; assay: Inhibition of CYP3A4 (unknown origin); format: ADME
[10] = target: Cytochrome P450 2D6 (Homo sapiens, UniProt P10635); assay: Inhibition of CYP2D6 (unknown origin); format: ADME
Chain of Cytochrome P450 2D6 (P10635 whole entry): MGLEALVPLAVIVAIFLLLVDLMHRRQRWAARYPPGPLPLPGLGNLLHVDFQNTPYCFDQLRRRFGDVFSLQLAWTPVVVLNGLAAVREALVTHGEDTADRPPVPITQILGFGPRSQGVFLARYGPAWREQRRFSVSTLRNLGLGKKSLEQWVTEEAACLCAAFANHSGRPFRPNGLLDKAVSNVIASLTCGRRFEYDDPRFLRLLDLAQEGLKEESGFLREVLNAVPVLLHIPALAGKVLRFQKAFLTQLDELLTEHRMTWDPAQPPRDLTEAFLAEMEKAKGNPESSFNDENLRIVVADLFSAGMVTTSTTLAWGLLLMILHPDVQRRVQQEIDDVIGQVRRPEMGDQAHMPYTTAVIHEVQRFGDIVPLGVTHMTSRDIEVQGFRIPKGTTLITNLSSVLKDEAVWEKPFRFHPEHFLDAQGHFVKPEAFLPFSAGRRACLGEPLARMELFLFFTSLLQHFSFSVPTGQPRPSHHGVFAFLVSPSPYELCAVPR

[11] = target: Cytochrome P450 2C9 (Homo sapiens, UniProt P11712); assay: Inhibition of CYP2C9 (unknown origin); format: ADME
Chain of Cytochrome P450 2C9 (P11712 whole entry): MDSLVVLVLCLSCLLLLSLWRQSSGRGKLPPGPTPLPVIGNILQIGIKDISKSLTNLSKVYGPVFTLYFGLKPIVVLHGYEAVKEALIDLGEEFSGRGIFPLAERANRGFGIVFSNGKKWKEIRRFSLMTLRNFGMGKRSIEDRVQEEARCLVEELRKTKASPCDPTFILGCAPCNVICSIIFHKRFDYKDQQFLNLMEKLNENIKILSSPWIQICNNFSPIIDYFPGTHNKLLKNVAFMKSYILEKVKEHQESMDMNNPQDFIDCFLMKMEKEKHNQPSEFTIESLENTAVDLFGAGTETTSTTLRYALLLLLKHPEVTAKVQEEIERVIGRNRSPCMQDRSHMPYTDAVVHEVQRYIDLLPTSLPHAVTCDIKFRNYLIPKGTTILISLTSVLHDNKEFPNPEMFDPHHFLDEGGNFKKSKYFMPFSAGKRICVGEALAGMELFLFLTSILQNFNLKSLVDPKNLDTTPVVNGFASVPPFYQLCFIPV

IC50 [1] [nM] | IC50 [2] [nM] | microsomal CLint at 1 µM [3] [µL/min/mg] | microsomal CLint at 1 µM [4] [µL/min/mg] | solubility [5] [µg/mL] | hepatocyte CLint at 1 µM [6] [µL/min/1e6 cells] | hepatocyte CLint at 1 µM [7] [µL/min/1e6 cells] | TDI [8] | INH [9] [µM] | INH [10] [µM] | INH [11] [µM] | Compound
< 1 | 23 | 20 | 29 | 1.1 (≈ 1.72 µM) | 0.3 | 2 | 0% | > 10 | > 10 | > 10 | Cn1nc(-c2cccc(-n3ncc4cc(C(C)(C)C)cc(F)c4c3=O)c2CO)cc(Nc2ccc(C(=O)N3CCOCC3)cn2)c1=O
– | – | – | – | – | – | – | Not Active | – | – | – | Cn1c2c(cc(Nc3ccc(C(=O)N4CCOCC4)cn3)c1=O)-c1cccc(-n3ncc4cc(C(C)(C)C)cc(F)c4c3=O)c1C[C@H](O)C2
– | – | 29 | 19 | 1 (≈ 1.5 µM) | 0.3 | 3.3 | 0% | > 7 | > 7 | > 7 | Cn1c2c(cc(Nc3ccc(C(=O)N4CCOCC4)cn3)c1=O)-c1cccc(-n3ncc4cc(C(C)(C)C)cc(F)c4c3=O)c1CC(O)C2 (racemic)
